From PubChem BioAssay AID192 (DTP/NCI, 2004)
Several values for one entry are separate records, joined by “and”; a condition that tells them apart may be missing. Identical values can stand only once. Toxic doses and inconclusive results are not listed. How the source made its calls: active means survival T/C of 150% or more; inactive means T/C below 125% in these data. Square brackets hold non-standard residues; d marks the D form. Peptide text beside a SMILES is read from it. * marks the point of attachment. ξ: configuration not given here. Cbz = O=C(OCc1ccccc1)*; ξK = NCCCCC(N)C(=O)O

System: BDF1 mice, B16 melanoma ip, median survival T/C
Assay: NCI In Vivo Anticancer Drug Screen. Data for tumor model B16 Melanoma (intraperitoneal) in B6D2F1 (BDF1) mice
Details: endpoint: median survival time, higher = longer survival
In short: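 Survival or tumor size is measured after treatment of tumor-bearing mice and normalised to the vehicle-treated control group.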

[1] = dose: 100.0 mg/kg/injection, schedule: Q04DX003 (ip), vehicle: Klucel (hydroxypropylcellulose) (HPC)
[2] = dose: 12.5 mg/kg/injection, schedule: Q01DX009 (ip), vehicle: Klucel (hydroxypropylcellulose) (HPC)
[3] = dose: 25.0 mg/kg/injection, schedule: Q01DX009 (ip), vehicle: Klucel (hydroxypropylcellulose) (HPC)
[4] = dose: 50.0 mg/kg/injection, schedule: Q01DX009 (ip), vehicle: Klucel (hydroxypropylcellulose) (HPC)
[5] = dose: 100.0 mg/kg/injection, schedule: Q01DX009 (ip), vehicle: Klucel (hydroxypropylcellulose) (HPC)
[6] = dose: 200.0 mg/kg/injection, schedule: Q01DX009 (ip), vehicle: Klucel (hydroxypropylcellulose) (HPC)
[7] = dose: 400.0 mg/kg/injection, schedule: Q01DX009 (ip), vehicle: Klucel (hydroxypropylcellulose) (HPC)
[8] = dose: 50.0 mg/kg/injection, schedule: Q01DX009 (ip), vehicle: saline with Tween-80
[9] = dose: 100.0 mg/kg/injection, schedule: Q01DX009 (ip), vehicle: saline with Tween-80
[10] = dose: 6.25 mg/kg/injection, schedule: Q01DX009 (ip), vehicle: saline
[11] = dose: 12.5 mg/kg/injection, schedule: Q01DX009 (ip), vehicle: saline
[12] = dose: 25.0 mg/kg/injection, schedule: Q01DX009 (ip), vehicle: saline
[13] = dose: 50.0 mg/kg/injection, schedule: Q01DX009 (ip), vehicle: saline
[14] = dose: 100.0 mg/kg/injection, schedule: Q01DX009 (ip), vehicle: saline
[15] = dose: 12.5 mg/kg/injection, schedule: Q01DX009 (ip), vehicle: saline with Tween-80
[16] = dose: 25.0 mg/kg/injection, schedule: Q01DX009 (ip), vehicle: saline with Tween-80
[17] = dose: 6.25 mg/kg/injection, schedule: Q01DX009 (ip), vehicle: saline with Tween-80

Measured: T/C

CCOC(=O)CCCN(c1ccccc1CC(=O)OCC)S(C)(=O)=O
inactive: [1] 96 % of control | dose: 200.0 mg/kg/injection, schedule: Q04DX003 (ip), vehicle: Klucel (hydroxypropylcellulose) (HPC) 104 % of control | dose: 400.0 mg/kg/injection, schedule: Q04DX003 (ip), vehicle: Klucel (hydroxypropylcellulose) (HPC) 96 % of control

C[C@]1(O)CC[C@H]2[C@@H]3CCC4=CC(=O)CC[C@]4(C)[C@@]3(F)[C@@H](O)C[C@@]21C
inactive: dose: 12.5 mg/kg/injection, schedule: Q02DX009 (ip), vehicle: Klucel (hydroxypropylcellulose) (HPC) 92 % of control | dose: 25.0 mg/kg/injection, schedule: Q02DX009 (ip), vehicle: Klucel (hydroxypropylcellulose) (HPC) 100 % of control | dose: 50.0 mg/kg/injection, schedule: Q02DX009 (ip), vehicle: Klucel (hydroxypropylcellulose) (HPC) 120 % of control | dose: 100.0 mg/kg/injection, schedule: Q02DX009 (ip), vehicle: Klucel (hydroxypropylcellulose) (HPC) 107 % of control | dose: 200.0 mg/kg/injection, schedule: Q02DX009 (ip), vehicle: Klucel (hydroxypropylcellulose) (HPC) 99 % of control | dose: 400.0 mg/kg/injection, schedule: Q02DX009 (ip), vehicle: Klucel (hydroxypropylcellulose) (HPC) 92 % of control

COc1ccc(Cl)[n+]([O-])n1
inactive: dose: 3.13 mg/kg/injection, schedule: Q01DX009 (ip), vehicle: Klucel (hydroxypropylcellulose) (HPC) 92 % of control | dose: 6.25 mg/kg/injection, schedule: Q01DX009 (ip), vehicle: Klucel (hydroxypropylcellulose) (HPC) 95 % of control | [2] 98 % of control | [3] 96 % of control | [4] 98 % of control | [5] 91 % of control

CCOc1ccc(NC(=O)c2ccccc2Cl)cc1
inactive: [5] 93 % of control | [6] 112 % of control | [7] 93 % of control

CC(=O)Nc1ccc([I+]c2ccc([N+](=O)[O-])cc2)cc1
inactive: [3] 100 % of control | [4] 104 % of control | [8] 87 % of control | [5] 90 % of control | [9] 98 % of control | dose: 200.0 mg/kg/injection, schedule: Q01DX009 (ip), vehicle: saline with Tween-80 107 % of control

Nc1ccn([C@@H](C=O)O[C@@H](C=O)CO)c(=O)n1
inactive: [10] 100 % of control and 112 % of control | [11] 101 % of control and 102 % of control | [12] 91 % of control and 109 % of control | [13] 99 % of control and 103 % of control | [14] 107 % of control and 112 % of control | dose: 200.0 mg/kg/injection, schedule: Q01DX009 (ip), vehicle: saline 113 % of control

N=[N+]=CC(=O)OCC(N)C(=O)O (stereo not given)
inactive: dose: 1.5 mg/kg/injection, schedule: Q01DX009 (ip), vehicle: other 100 % of control | dose: 3.13 mg/kg/injection, schedule: Q01DX009 (ip), vehicle: saline 100 % of control | dose: 5.0 mg/kg/injection, schedule: Q04DX003 (ip), vehicle: water 102 % of control | [10] 102 % of control | dose: 10.0 mg/kg/injection, schedule: Q04DX003 (ip), vehicle: other 100 % of control | [11] 105 % of control | dose: 15.0 mg/kg/injection, schedule: Q04DX003 (ip), vehicle: water 115 % of control | dose: 20.0 mg/kg/injection, schedule: Q04DX003 (ip), vehicle: other 100 % of control | dose: 375.0 micrograms/kg/injection, schedule: Q01DX009 (ip), vehicle: water 118 % of control | dose: 750.0 micrograms/kg/injection, schedule: Q01DX009 (ip), vehicle: water 107 % of control

O=C1C=C(C2CCCCC2)C(=O)c2ccccc21
inactive: [15] 106 % of control | [16] 101 % of control | [8] 92 % of control | [9] 92 % of control

NCC(=O)NC(CCCCNC(=O)OCc1ccccc1)C(=O)O (stereo not given) (H-Gly-[ξK](Cbz)-OH)
inactive: dose: 3.12 mg/kg/injection, schedule: Q01DX009 (ip), vehicle: saline with Tween-80 97 % of control | [17] 101 % of control

CC(C)[S][Pb]([c]1ccccc1)([c]1ccccc1)[c]1ccccc1
inactive: dose: 0.3 mg/kg/injection, schedule: Q01DX009 (ip), vehicle: gum acacia 97 % of control | dose: 0.6 mg/kg/injection, schedule: Q01DX009 (ip), vehicle: gum acacia 91 % of control | dose: 1.25 mg/kg/injection, schedule: Q01DX009 (ip), vehicle: gum acacia 89 % of control

CCOC(=O)c1ccc(Nc2sc(C(=O)c3ccc(Br)cc3)c(N)c2C#N)cc1
inactive: [17] 92 % of control | [15] 87 % of control | [16] 88 % of control | [8] 86 % of control

COc1ccc2c(c1[N+](=O)[O-])CC[C@@H]1[C@@H]2CC[C@]2(C)C(=O)CC[C@@H]12
inactive: [8] 87 % of control | [9] 89 % of control

Cc1c2cccc(Sc3ccccc3)c2c2c3c(cccc13)[S+](c1ccccc1)C2 (stereo not given)
inactive: dose: 0.78 mg/kg/injection, schedule: Q01DX009 (ip), vehicle: saline with Tween-80 104 % of control | dose: 1.56 mg/kg/injection, schedule: Q01DX009 (ip), vehicle: saline with Tween-80 105 % of control | dose: 3.13 mg/kg/injection, schedule: Q01DX009 (ip), vehicle: saline with Tween-80 102 % of control | [17] 91 % of control and 100 % of control

O=C(C(=O)c1ccc(Br)cc1)c1ccc(Br)cc1
inactive: [2] 108 % of control | [3] 107 % of control | [4] 91 % of control

OCc1cc(Cl)ccc1O
inactive: [4] 103 % of control | [5] 96 % of control | [6] 86 % of control

CC(C)(COC(=O)c1ccccc1)COC(=O)c1ccccc1
inactive: [5] 111 % of control | [6] 105 % of control | [7] 99 % of control

C1=Cc2ccccc2/C1=C/c1cccc(/C=C2\C=Cc3ccccc32)c1
inactive: [17] 100 % of control | [15] 86 % of control

CSC(=S)N/N=C/c1ccccn1
inactive: dose: 0.75 mg/kg/injection, schedule: Q01DX009 (ip), vehicle: saline with Tween-80 86 % of control | dose: 1.5 mg/kg/injection, schedule: Q01DX009 (ip), vehicle: saline with Tween-80 89 % of control | dose: 3.0 mg/kg/injection, schedule: Q01DX009 (ip), vehicle: saline with Tween-80 86 % of control | dose: 6.0 mg/kg/injection, schedule: Q01DX009 (ip), vehicle: saline with Tween-80 94 % of control | [15] 110 % of control | [16] 105 % of control

O=C(Nc1ccc(C2=NCCCN2)cc1)c1ccc(C(=O)Nc2ccc(C3=NCCCN3)cc2)nc1
inactive: dose: 5.0 mg/kg/injection, schedule: Q01DX009 (ip), vehicle: saline with Tween-80 87 % of control | dose: 10.0 mg/kg/injection, schedule: Q01DX009 (ip), vehicle: saline with Tween-80 95 % of control

ClCCCCCCCCCCCl
inactive: [2] 111 % of control | [3] 100 % of control | dose: 25.0 mg/kg/injection, schedule: Q04DX003 (ip), vehicle: Klucel (hydroxypropylcellulose) (HPC) 100 % of control | [4] 95 % of control | dose: 50.0 mg/kg/injection, schedule: Q04DX003 (ip), vehicle: Klucel (hydroxypropylcellulose) (HPC) 100 % of control | [1] 104 % of control

CN1CCC=C(CN(c2ccccc2)c2ccccc2)C1
inactive: [12] 92 % of control | [13] 89 % of control | [14] 92 % of control

Cc1ccc(NC(=O)Nc2ccccc2C)c(C)c1
inactive: [4] 115 % of control | [5] 115 % of control | [6] 118 % of control
